Consider 9 molecules from US6794126B2, “Methods for preventing or inhibiting neuronal cell death” (The Trustees of Columbia University in the City of New York, priority 1996, dated 2004).

“Also recorded” adds a separate entry of the source. Residues, ends and D or L forms follow the SMILES beside them. *: point of attachment. Cbz = O=C(OCc1ccccc1)*; CH2F = FC*

Data set [1] relates to sympathetic neurons. As to the kind of experiment: Survival of sympathetic neurons treated with AraC. The format is cell-based. The settings on record: for survival of AraC-treated sympathetic neurons: NGF present, flavopiridol 1 mM, olomoucine 200 mM (printed, FIG. 8), isoolomoucine 200 μM, aphidicolin 10 μM; for maximal concentration required to protect from AraC: day 3; for toxicity of the CDK inhibitors to sympathetic neurons: beyond five days, even without AraC treatment. On the procedure:
A mixture of uridine and 5-fluorodeoxyuridine (10 mM each) was also added to eliminate non-neuronal cells on day two. No pretreatment with survival agent, unless otherwise noted, was necessary for effective survival of neurons exposed to AraC. In the case of UV irradiation, the neurons died quite rapidly. Accordingly, neuronal cultures were pretreated overnight (18 hr) with survival-promoting agents prior to UV irradiation. […] All experimental points are expressed relative to the original number of neurons present in each well and are reported as mean+/−SEM (n=3).

The subject of data set [2] is neuronal PC12 cells. The experiment in a line: Survival of neuronal PC12 cells depleted of SOD1 (Example 2). The format is cell-based, rat. On the procedure: Naive PC12 cells were cultured and passaged as previously described (Greene and Tischler, 1976). Neuronally-differentiated PC12 cells were generated by exposing PC12 cells to NGF in serum-free RPMI 1640 medium for 8-9 days. For survival experiments, neuronally-differentiated PC12 cells were plated onto collagen-coated 24-well tissue culture dishes at a density of approximately 2×10^5 cells per well. Neuronally-differentiated PC12 cells were cultured in serum-free RPMI 1640 medium containing NGF (100 ng/ml) throughout the course of survival experiments. At appropriate times of culture under the conditions described in the text, cells were lysed and the numbers of viable cells was evaluated as previously described (Rukenstein et al., 1991). All experimental points are expressed as a percentage of cells plated on day 0 and are reported as mean +/−SEM (n=3).

Data set [3] concerns sympathetic neurons. As to the kind of experiment: Survival of sympathetic neurons exposed to UV irradiation. The format is cell-based, rat. The settings on record: for survival of UV-treated sympathetic neurons: NGF present, pretreated before UV, flavopiridol 1 mM (sic, FIG. 6A), olomoucine 200 μM, isoolomoucine 200 μM, aphidicolin 10 μM; for concentration of maximal protection: UV-treated, day 1. As to the method:
Cells were exposed to UV irradiation using the Stratolinker UV crosslinker (Stratagene®). Sympathetic neurons were exposed to 3×10^4 μJ while neuronal PC12 cells were exposed to […]. Each well was exposed with 200 μl of medium containing NGF with or without the appropriate drug. After irradiation 300 μl of additional medium containing NGF with or without drug was added.
(§1) The cells were plated onto collagen-coated 24-well dishes at a density of approximately 0.5 ganglia per well and maintained in RPMI 1640 medium supplemented with 10% heat-inactivated horse serum and 60 ng/ml mouse NGF for a period of three days prior to the survival experiment. A mixture of uridine and 5-fluorodeoxyuridine (10 mM each) was also added to eliminate non-neuronal cells on day two. No pretreatment with survival agent, unless otherwise noted, was necessary for effective survival of neurons exposed to AraC. In the case of UV irradiation, the neurons died quite rapidly. Accordingly, neuronal cultures were pretreated overnight (18 hr) with survival-promoting agents prior to UV irradiation. NGF deprivation was performed by washing with NGF-free medium and addition of anti-NGF antiserum as previously described (Park et al., 1996a). V-ASOD1 oligonucleotides, in conjunction with the nitric oxide generator, S-nitrosopenicillamine (SNAP; 100 μM) were added to the cultured sympathetic neurons as previously described (Troy et al., 1997). At appropriate times, the numbers of viable, phase bright neurons were determined by strip counting as previously described (Rydel and Greene; 1988). All experimental points are expressed relative to the original number of neurons present in each well and are reported as mean+/−SEM (n=3).

Data set [4] relates to sympathetic neurons. The experiment in a line: Survival of sympathetic neurons depleted of SOD1 (V-ASOD1 plus SNAP). Type of data set: cell-based, rat. As to the method: as §1
Data set [5] deals with proliferating PC12 cells. The following applies: proliferating PC12 cells (Park et al., 1996a); cited from earlier work.
For data set [6], the system named is sympathetic neurons. As to the kind of experiment: Survival of sympathetic neurons deprived of NGF (Example 2). The format is cell-based, rat. The following applies: for death of sympathetic neurons deprived of NGF: CDK inhibitors, same experiments as SOD1 depletion (FIG. 10). As to the method: as §1
Data set [7] deals with PC12 cells. As to the kind of experiment: PC12 cell survival after withdrawal of serum/NGF (trophic factor deprivation). The format is cell-based, rat. On the procedure: (§2) PC12 cells were grown as previously described (Greene and Tishcler, 1976) on rat-tail collagen-coated dishes in RPMI 1640 medium containing 5% fetal calf serum and 10% heat-inactivated horse serum (complete medium). NGF primed PC12 cells were grown for at least 7 days in RPMI 1640 medium plus 1% horse serum and NGF (100 ng/ml). For cell survival assays involving trophic factor deprivation, cells (either naive or NGF-pretreated) were extensively washed in serum-free RPMI 1640 medium and re-plated on fresh collagen-coated 24-well dishes as previously described (Rukenstein et al., 1991) in RPMI 1640 medium lacking serum or NGF. For SOD1 down-regulation survival assays, cells were re-plated in complete medium with V-ASOD1 (vector linked antisense oligonucleotide to SOD1, 50 nM). Various concentrations of ICE inhibitors were included in the medium as indicated. Numbers of viable cells per culture were determined by quantifying intact nuclei as previously described (Rukenstein et al., 1991). Counts were performed in triplicate and reported as means±SEM.

Data set [8] has as its system sympathetic neurons. The experiment in a line: Survival of cultured sympathetic neurons after NGF withdrawal (Example 1). The format is cell-based, rat. On the procedure: Sympathetic neuron cultures were prepared from 2 day old rat pups, as previously described (Ferrari et al., 1995). Cultures were grown in 24-well collagen coated dishes in RPMI 1640 medium plus 10% horse serum with mouse NGF (100 ng/ml). One day following plating, uridine and 5-fluorodeoxyuridine (10 μM each) were added to the cultures and left for three days to eliminate non-neuronal cells. On the sixth day following plating NGF was removed by washing the cultures three times with RPMI 1640 medium plus 10% horse serum, followed by the addition of medium containing anti-mouse NGF (1:200, Sigma) with or without ICE inhibitors. Each culture was scored, as previously described (Rydel and Greene, 1988), as numbers of living, phase-bright neurons at various times. Three replicate cultures were assessed for each condition and data were normalized to numbers of neurons present in each culture at the time of NGF withdrawal and reported as mean±SEM.

Data set [9] concerns PC12 cells. As to the kind of experiment: PC12 cell survival after SOD1 down-regulation by V-ASOD1. Type of data set: cell-based, rat. As to the method: as §2
The test system of data set [10] is IL-1β. As to the kind of experiment: Assay of IL-1β secreted by PC12 cells (ELISA). Type of data set: cell-based, rat. The following applies: cells treated with NGF, 24 h. As to the method:
IL-1β was quantified by ELISA using the Intertest-1βX kit (Genzyme, Cambridge, Mass.). PC12 cells were grown as described above, on 24-well plates, in 500 μl of medium. After one day incubation, medium was removed and IL-1β measured following the manufacturer's instructions, and number of viable cells in each well quantified.

Regarding `CN1CC[C@H](c2c(O)cc(O)c3c(=O)cc(-c4ccccc4Cl)oc23)[C@H](O)C1` [flavopiridol], in data set [1] (AraC 100 μM), the “survival of AraC-treated sympathetic neurons” value is “quite effectively promoted long term survival” and the “maximal concentration required to protect from AraC” value came out at 1 µM. The “toxicity of the CDK inhibitors to sympathetic neurons” value in data set [1] is recorded as “toxicity”. In [2], the “death of neuronal PC12 cells depleted of SOD1” value was “failed to inhibit death”. Moreover, in data set [3], the “survival of UV-treated sympathetic neurons” value is “effectively promoted survival” and the “concentration of maximal protection” value was in the range of 1 to 3 µM. In addition, the “protection of sympathetic neurons depleted of SOD1” value (“protection … of SOD1” for short) in data set [4] (ASOD1 50 nM with SNAP 100 μM) was “neither flavopiridol nor olomoucine protected”. The “minimum concentration required to fully inhibit DNA synthesis” value in data set [5] was 1 µM. Further, the “death of sympathetic neurons deprived of NGF” value in [6] was “effectively blocked the death”.

Consider `CC(C)[C@H](NC(=O)[C@H](Cc1ccc(O)cc1)NC(=O)OCc1ccccc1)C(=O)N[C@@H](C)C(=O)N[C@@H](CC(=O)O)C(=O)CCl` [ZYVAD-CMK, ZYVAD-chloromethylketone], for which the “protection from trophic factor withdrawal” value in data set [7] (250 μM) is reported as “only partially effective; also recorded: partial protection”. For the same molecule, the “protection from NGF deprivation” value in data set [8] (250 μM) is “no effect”. Further, in data set [9] (50 μM), the “protection from SOD1 down-regulation” value is reported as “full protection”.

Consider `COC(=O)C[C@H](NC(=O)[C@H](C)NC(=O)[C@@H](NC(=O)OCc1ccccc1)C(C)C)C(=O)CF` [ZVAD-FMK, ZVAD-fluoromethylketone] (Cbz-Val-Ala-Asp(OMe)-CH2F), for which the “concentration required to be fully protective” value in data set [7] (serum withdrawal, one day) came out at 50 µM. In addition, the “survival of sympathetic cultures exposed to AraC” value in data set [1] (50 μM, AraC 100 μM) was “ineffective”. The “survival of sympathetic cultures exposed to UV irradiation” value in data set [3] (50 μM, pretreated 16 hr) is reported as “ineffective”. For the same molecule, the “protection … of SOD1” value in [4] (50 μM, exposed to nitric oxide generators) is listed as “protected”. For the same molecule, in data set [8] (100 μM), the “protection from NGF deprivation” value is “protected”. Further, in data set [6] (50 μM), the “protection from death due to NGF-depletion” value is reported as “protects”. For the same molecule, the “dose required for maximal protection” value in [9] (V-ASOD1 50 nM, one day) amounted to 6 µM.

As for `C[C@@]1(CO)[C@H](O)CC[C@@]2(C)[C@H]1CC[C@H]1C[C@@H]3C[C@@]12CC[C@]3(O)CO` [aphidicolin], the “survival of AraC-treated sympathetic neurons” value in data set [1] (AraC 100 μM) was “failed to block death”. Besides, the “survival of UV-treated sympathetic neurons” value in [3] is reported as “failed to block death”.

Regarding `Cn1cnc2nc(NCCO)nc(NCc3ccccc3)c21` [isoolomoucine], the “survival of AraC-treated sympathetic neurons” value in data set [1] (AraC 100 μM) was “ineffective”. Moreover, the “survival of UV-treated sympathetic neurons” value in data set [3] is given as “nearly ineffective”.

Take `Cn1cnc2c(NCc3ccccc3)nc(NCCO)nc21` [olomoucine, 2-(2-hydroxyethylamino)-6-benzylamino-9-methylpurine]: in data set [1] (AraC 100 μM), the “survival of AraC-treated sympathetic neurons” value is “quite effectively promoted long term survival” and the “maximal concentration required to protect from AraC” value amounted to 200 µM. For the same molecule, the “toxicity of the CDK inhibitors to sympathetic neurons” value in [1] was “toxicity”. For the same molecule, the “death of neuronal PC12 cells depleted of SOD1” value in data set [2] is reported as “failed to inhibit death”. In addition, in [3], the “survival of UV-treated sympathetic neurons” value is “effectively promoted survival” and the “concentration of maximal protection” value stood at 200 µM. Also, the “protection … of SOD1” value in data set [4] (ASOD1 50 nM with SNAP 100 μM) was “neither flavopiridol nor olomoucine protected”. The “minimum concentration required to fully inhibit DNA synthesis” value in [5] is 200 µM. Further, the “death of sympathetic neurons deprived of NGF” value in data set [6] is listed as “effectively blocked the death”.

Take `CC(=O)N[C@@H](Cc1ccc(O)cc1)C(=O)N[C@H](C(=O)N[C@@H](C)C(=O)N[C@@H](CC(=O)O)C(=O)CCl)C(C)C` [acYVAD-cmk]: the “death evoked by SOD1 depletion” value in data set [4] (250 μM, two days, ASOD1 with SNAP 100 μM) was “blocks death”. The “death due to NGF deprivation” value in [6] (250 μM, two days) is listed as “not death due to NGF deprivation”.

B1: NGF: nerve growth factor (mouse NGF) (protein, UniProt P01139 122-241, looked up)
Beta-nerve growth factor: SSTHPVFHMGEFSVCDSVSVWVGDKTTATDIKGKEVTVLAEVNINNSVFRQYFFETKCRASNPVESGCRGIDSKHWNSYCTTTHTFVKALTTDEKQAAWRFIRIDTACVCVLSRKATRRG
With B1, the “increase in IL-1β secretion” value in [10] stood at 4 fold.

B2: rmIL-1Ra: IL-1 receptor antagonist (protein, UniProt P25085 27-178, looked up)
Interleukin-1 receptor …: RPSGKRPCKMQAFRIWDTNQKTFYLRNNQLIAGYLQGPNIKLEEKIDMVPIDLHSVFLGIHGGKLCLSCAKSGDDIKLQLEEVNITDLSKNKEEDKRFTFIRSEKGPTTSFESAACPGWFLCTTLEADRPVSLTNTPEEPLIVTKFYFQEDQ
Take B2: the “protection from trophic factor withdrawal” value in data set [7] (10,000 ng/ml, one day) is recorded as “improved survival under these conditions only modestly”. For the same molecule, the “suppression of cell death of V-ASOD1 treated PC12 cells” value in data set [9] (100 ng/ml) is listed as “completely suppressed cell death”.
